# In US8067042B1 (Mutual Pharmaceutical Company, Inc., priority 2007, dated 2011):
# Several values for one entry are separate records, joined by “and”; a condition that tells them apart may be missing. Identical values can stand only once. Like-named read-outs stand apart in the source and are kept apart here.
# What was measured:
# [1] = biological target: Human CYP2C19 + P450 Reductase + Cytochrome b5 SUPERSOMES (Homo sapiens, UniProt P33261)
# Method: (§1) In this study, individual CYP isoforms expressed from human cDNA and P450 reductase cDNA were used (BD SUPERSOMES™ Enzymes, BD Biosciences Discovery Labware, Woburn, Mass.). SUPERSOMES™ are microsomes from baculovirus-infected insect cells containing singly expressed recombinant human CYP enzymes.
# (§2) After a 5-minute preincubation, an appropriate amount of the appropriate buffer was added to the reaction mixtures to make the final volume of 0.5 mL. The incubations were continued for 60 minutes.
# (§3) All incubation reactions were terminated by adding 0.5 mL methanol, and the samples were transferred to cryovials and stored at −70±10° C. until analysis.
# [2] = biological target: T1, Human CYP1A2 + P450 Reductase SUPERSOMES (Homo sapiens, UniProt P05177)
# T1 sequence (P05177 2-516 limits assumed): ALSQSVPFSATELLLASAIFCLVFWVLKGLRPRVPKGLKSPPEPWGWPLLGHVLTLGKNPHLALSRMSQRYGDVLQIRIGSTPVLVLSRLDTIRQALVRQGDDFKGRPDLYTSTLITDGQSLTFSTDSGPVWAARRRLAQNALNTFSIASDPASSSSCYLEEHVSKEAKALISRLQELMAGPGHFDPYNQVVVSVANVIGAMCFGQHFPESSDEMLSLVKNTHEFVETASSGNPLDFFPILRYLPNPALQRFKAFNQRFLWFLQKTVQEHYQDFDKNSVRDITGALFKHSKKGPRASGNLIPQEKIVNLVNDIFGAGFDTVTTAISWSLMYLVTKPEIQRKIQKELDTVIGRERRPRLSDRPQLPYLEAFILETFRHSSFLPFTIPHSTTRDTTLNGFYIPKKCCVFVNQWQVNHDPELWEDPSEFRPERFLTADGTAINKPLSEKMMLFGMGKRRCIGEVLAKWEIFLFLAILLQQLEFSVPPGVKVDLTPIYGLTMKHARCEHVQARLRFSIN
# Method: as §1, §2, §3
# [3] = biological target: T2, Human CYP2A6 + P450 Reductase + Cytochrome b5 SUPERSOMES (Homo sapiens, UniProt P11509)
# T2 sequence (P11509 1-494): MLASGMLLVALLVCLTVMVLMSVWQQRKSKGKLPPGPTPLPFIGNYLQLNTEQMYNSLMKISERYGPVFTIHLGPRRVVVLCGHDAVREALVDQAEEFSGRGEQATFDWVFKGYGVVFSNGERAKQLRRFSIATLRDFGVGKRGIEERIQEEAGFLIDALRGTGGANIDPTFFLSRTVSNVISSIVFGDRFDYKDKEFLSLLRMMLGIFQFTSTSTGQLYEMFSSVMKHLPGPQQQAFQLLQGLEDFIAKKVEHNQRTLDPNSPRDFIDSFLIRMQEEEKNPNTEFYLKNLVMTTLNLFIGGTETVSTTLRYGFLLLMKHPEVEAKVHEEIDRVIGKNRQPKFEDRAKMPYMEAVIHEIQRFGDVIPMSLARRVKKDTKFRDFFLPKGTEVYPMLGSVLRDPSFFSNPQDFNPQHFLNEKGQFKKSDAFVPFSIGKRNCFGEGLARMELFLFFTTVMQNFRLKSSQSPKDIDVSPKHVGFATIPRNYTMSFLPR
# Method: as §1, §2, §3
# [4] = biological target: Human CYP2E1 + P450 Reductase + Cytochrome b5 SUPERSOMES (Homo sapiens, UniProt P05181)
# Human CYP2E1 + P450 Reductase + Cytochrome b5 SUPERSOMES, sequence (P05181 whole entry): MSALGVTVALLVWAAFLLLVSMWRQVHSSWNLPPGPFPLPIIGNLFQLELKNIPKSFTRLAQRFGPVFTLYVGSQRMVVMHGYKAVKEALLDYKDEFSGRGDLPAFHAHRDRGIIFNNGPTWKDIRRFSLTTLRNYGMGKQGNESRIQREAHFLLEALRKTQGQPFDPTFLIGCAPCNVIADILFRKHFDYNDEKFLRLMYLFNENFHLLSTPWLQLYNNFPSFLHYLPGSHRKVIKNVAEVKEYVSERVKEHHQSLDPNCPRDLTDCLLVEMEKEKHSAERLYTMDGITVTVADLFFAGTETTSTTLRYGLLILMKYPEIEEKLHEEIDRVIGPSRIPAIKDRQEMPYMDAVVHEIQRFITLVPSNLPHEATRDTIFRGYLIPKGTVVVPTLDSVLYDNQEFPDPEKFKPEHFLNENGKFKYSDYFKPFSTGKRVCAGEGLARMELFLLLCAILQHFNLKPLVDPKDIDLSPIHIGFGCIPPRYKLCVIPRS
# Method: as §1, §2, §3
# [5] = 5 μM, 5 pmol enzyme, listed as megestrol acetate
# [6] = 5 μM, 20 pmol enzyme, listed as megestrol acetate
# [7] = 50 μM, 5 pmol enzyme, listed as megestrol acetate
# [8] = 50 μM, 20 pmol enzyme, listed as megestrol acetate
# Human CYP2C19 + P450 Reductase + Cytochrome b5 SUPERSOMES, sequence (P33261 whole entry, canonical isoform): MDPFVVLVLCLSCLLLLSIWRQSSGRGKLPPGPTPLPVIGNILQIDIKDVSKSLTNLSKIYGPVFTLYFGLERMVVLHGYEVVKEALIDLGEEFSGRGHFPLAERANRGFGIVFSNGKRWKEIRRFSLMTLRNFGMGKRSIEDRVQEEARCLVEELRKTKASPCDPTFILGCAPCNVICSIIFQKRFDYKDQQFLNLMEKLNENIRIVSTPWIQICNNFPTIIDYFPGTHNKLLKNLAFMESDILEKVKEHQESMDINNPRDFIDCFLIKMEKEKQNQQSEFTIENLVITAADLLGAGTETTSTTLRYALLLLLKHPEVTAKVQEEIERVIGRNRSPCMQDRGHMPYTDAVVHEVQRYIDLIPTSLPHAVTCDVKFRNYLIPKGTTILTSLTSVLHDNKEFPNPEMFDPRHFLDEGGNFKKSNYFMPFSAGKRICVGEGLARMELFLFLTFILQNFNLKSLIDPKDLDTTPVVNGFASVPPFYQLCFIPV
compound,measurement,setting,value
"CC(=O)O[C@]1(C(C)=O)CC[C@H]2[C@@H]3C=C(C)C4=CC(=O)CC[C@]4(C)[C@H]3CC[C@@]21C [Megestrol Acetate, 17 α-acetyloxy-6-methylpregna-4,6-diene-3,20-dione]",Individual Raw Data Observed,"[1]; 5 μM, 5 pmol enzyme",2.139 µM and 2.028 µM and 1.969 µM
same,Percent of Parent Disappearance Individual,"[1]; 5 μM, 5 pmol enzyme",−8.12% and −2.56% and 0.430%
same,Percent of Parent Disappearance Mean ± SD,"[1]; 5 μM, 5 pmol enzyme",−3.42 ± 4.34%
same,Percent of Parent Disappearance Mean ± SD,[1]; [5],3.42±4.34%
same,Individual Raw Data Observed,"[1]; 5 μM, 20 pmol enzyme",2.14 µM and 2.225 µM and 2.128 µM
same,Percent of Parent Disappearance Individual,"[1]; 5 μM, 20 pmol enzyme",2.70% and −1.16% and 3.25%
same,Percent of Parent Disappearance Mean ± SD,"[1]; 5 μM, 20 pmol enzyme",1.60 ± 2.40%
same,Percent of Parent Disappearance Mean ± SD,[1]; [6],1.60±2.40%
same,Individual Raw Data Observed,"[1]; 50 μM, 5 pmol enzyme",21.34 µM and 20.03 µM and 19.86 µM
same,Percent of Parent Disappearance Individual,"[1]; 50 μM, 5 pmol enzyme",−9.66% and −2.96% and −2.05%
same,Percent of Parent Disappearance Mean ± SD,"[1]; 50 μM, 5 pmol enzyme",−4.89 ± 4.16%
same,Percent of Parent Disappearance Mean ± SD,[1]; [7],4.89±4.16%
same,Individual Raw Data Observed,"[1]; 50 μM, 20 pmol enzyme",15.71 µM and 16.25 µM and 16.51 µM
same,Percent of Parent Disappearance Individual,"[1]; 50 μM, 20 pmol enzyme",−0.956% and −4.44% and −6.11%
same,Percent of Parent Disappearance Mean ± SD,"[1]; 50 μM, 20 pmol enzyme",−3.84 ± 2.63%
same,Percent of Parent Disappearance Mean ± SD,[1]; [8],3.84±2.63%
same,Individual Raw Data Observed,"[2]; 5 μM, 5 pmol enzyme",2.044 µM and 2.183 µM and 2.216 µM
same,Percent of Parent Disappearance Individual,"[2]; 5 μM, 5 pmol enzyme",−2.76% and −9.79% and −11.4%
same,Percent of Parent Disappearance Mean ± SD,"[2]; 5 μM, 5 pmol enzyme",−7.99 ± 4.60%
same,Percent of Parent Disappearance Mean ± SD,[2]; [5],no disappearance of the substrate was detected
same,Individual Raw Data Observed,"[2]; 5 μM, 20 pmol enzyme",2.309 µM and 2.295 µM and 2.254 µM
same,Percent of Parent Disappearance Individual,"[2]; 5 μM, 20 pmol enzyme",5.51% and 6.07% and 7.78%
same,Percent of Parent Disappearance Mean ± SD,"[2]; 5 μM, 20 pmol enzyme",6.45 ± 1.18%
same,Percent of Parent Disappearance Mean ± SD,[2]; [6],6.45±1.18%
same,Individual Raw Data Observed,"[2]; 50 μM, 5 pmol enzyme",20.03 μM (2×) and 19.46 μM
same,Percent of Parent Disappearance Individual,"[2]; 50 μM, 5 pmol enzyme",−5.05% and −5.02% and −2.05%
same,Percent of Parent Disappearance Mean ± SD,"[2]; 50 μM, 5 pmol enzyme",−4.04 ± 1.72%
same,Percent of Parent Disappearance Mean ± SD,[2]; [7],no disappearance of the substrate was detected
same,Individual Raw Data Observed,"[2]; 50 μM, 20 pmol enzyme",19.6 µM and 20.86 µM and 20.65 µM
same,Percent of Parent Disappearance Individual,"[2]; 50 μM, 20 pmol enzyme",11.0% and 5.29% and 6.24%
same,Percent of Parent Disappearance Mean ± SD,"[2]; 50 μM, 20 pmol enzyme",7.51 ± 3.06%
same,Percent of Parent Disappearance Mean ± SD,[2]; [8],7.51±3.06%
same,Individual Raw Data Observed,"[3]; 5 μM, 5 pmol enzyme",2.313 µM and 2.35 µM and 2.527 µM
same,Percent of Parent Disappearance Individual,"[3]; 5 μM, 5 pmol enzyme",3.96% and 2.43% and −4.94%
same,Percent of Parent Disappearance Mean ± SD,"[3]; 5 μM, 5 pmol enzyme",0.486 ± 4.76%
same,Percent of Parent Disappearance Mean ± SD,[3]; [5],0.486±4.76%
same,Individual Raw Data Observed,"[3]; 5 μM, 20 pmol enzyme",2.456 µM and 2.487 µM and 2.684 µM
same,Percent of Parent Disappearance Individual,"[3]; 5 μM, 20 pmol enzyme",1.36% and 0.129% and −7.81%
same,Percent of Parent Disappearance Mean ± SD,"[3]; 5 μM, 20 pmol enzyme",−2.11 ± 4.98%
same,Percent of Parent Disappearance Mean ± SD,[3]; [6],2.11±4.98%
same,Individual Raw Data Observed,"[3]; 50 μM, 5 pmol enzyme",24.75 µM and 23.3 µM and 23.45 µM
same,Percent of Parent Disappearance Individual,"[3]; 50 μM, 5 pmol enzyme",−5.02% and 1.11% and 0.484%
same,Percent of Parent Disappearance Mean ± SD,"[3]; 50 μM, 5 pmol enzyme",−1.14 ± 3.38%
same,Percent of Parent Disappearance Mean ± SD,[3]; [7],1.14±3.38%
same,Individual Raw Data Observed,"[3]; 50 μM, 20 pmol enzyme",21.74 µM and 22.68 µM and 23.15 µM
same,Percent of Parent Disappearance Individual,"[3]; 50 μM, 20 pmol enzyme",4.54% and 0.420% and −1.66%
same,Percent of Parent Disappearance Mean ± SD,"[3]; 50 μM, 20 pmol enzyme",1.10 ± 3.16%
same,Percent of Parent Disappearance Mean ± SD,[3]; [8],1.10±3.16%
same,Individual Raw Data Observed,"[4]; 5 μM, 5 pmol enzyme",2.008 µM and 2.126 µM and 2.034 µM
same,Percent of Parent Disappearance Individual,"[4]; 5 μM, 5 pmol enzyme",20.4% and 15.8% and 19.4%
same,Percent of Parent Disappearance Mean ± SD,"[4]; 5 μM, 5 pmol enzyme",18.5 ± 02.46%
same,Percent of Parent Disappearance Mean ± SD,[4]; [5],18.5±2.46%
same,Individual Raw Data Observed,"[4]; 5 μM, 20 pmol enzyme",1.473 µM and 1.491 µM and 1.693 µM
same,Percent of Parent Disappearance Individual,"[4]; 5 μM, 20 pmol enzyme",−1.62% and −2.86% and −16.8%
same,Percent of Parent Disappearance Mean ± SD,"[4]; 5 μM, 20 pmol enzyme",−7.09 ± 8.42%
same,Percent of Parent Disappearance Mean ± SD,[4]; [6],7.09±8.42%
same,Individual Raw Data Observed,"[4]; 50 μM, 5 pmol enzyme",21.97 µM and 17.04 µM and 17.99 µM
same,Percent of Parent Disappearance Mean ± SD,"[4]; 50 μM, 5 pmol enzyme",−10.5 ± 15.2%
same,Percent of Parent Disappearance Mean ± SD,[4]; [7],10.5±15.2%
same,Individual Raw Data Observed,"[4]; 50 μM, 20 pmol enzyme",21.04 µM and 21.41 µM and 21.74 µM
same,Percent of Parent Disappearance Individual,"[4]; 50 μM, 20 pmol enzyme",−1.09% and −2.83% and −4.46%
same,Percent of Parent Disappearance Mean ± SD,"[4]; 50 μM, 20 pmol enzyme",−2.79 ± 1.69%
same,Percent of Parent Disappearance Mean ± SD,[4]; [8],2.79±1.69%
